Assay results published in PubChem BioAssay (NCI).
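Protocol summary: plate cells (96-well), add compound at 5 concentrations, incubate 48 h, interpolate endpoints linearly. The concentration for full growth arrest is given as TGI.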

Columns and labels:
Assay in all cases: NCI tumour cell line growth inhibition, 48 h
HOP-62 NSCLC = system: HOP-62 NSCLC
HOP-92 NSCLC = system: HOP-92 NSCLC
UACC-257 melanoma = system: UACC-257 melanoma
HCT-15 colon = system: HCT-15 colon
HT29 colon = system: HT29 colon
SK-MEL-2 melanoma = system: SK-MEL-2 melanoma
U251 CNS = system: U251 CNS
NCI-H226 lung = system: NCI-H226 lung
SK-MEL-28 melanoma = system: SK-MEL-28 melanoma
KM20L2 colon = system: KM20L2 colon
HOP-18 NSCLC = system: HOP-18 NSCLC
OVCAR-8 ovarian = system: OVCAR-8 ovarian
NCI-H460 lung = system: NCI-H460 lung
P388/ADR leukemia = system: P388/ADR leukemia
NCI-H23 lung = system: NCI-H23 lung
OVCAR-5 ovarian = system: OVCAR-5 ovarian
SK-OV-3 ovarian = system: SK-OV-3 ovarian
A498 renal = system: A498 renal
LOX IMVI melanoma = system: LOX IMVI melanoma
HL-60(TB) leukemia = system: HL-60(TB) leukemia
NCI/ADR-RES ovarian = system: NCI/ADR-RES ovarian
SW-620 colon = system: SW-620 colon
M19-MEL melanoma = system: M19-MEL melanoma
DMS 114 small cell lung = system: DMS 114 small cell lung
SF-268 CNS = system: SF-268 CNS
DLD-1 colon = system: DLD-1 colon
UACC-62 melanoma = system: UACC-62 melanoma
XF 498 CNS = system: XF 498 CNS
A549 NSCLC = system: A549 NSCLC
SF-295 CNS = system: SF-295 CNS
KM12 colon = system: KM12 colon
OVCAR-3 ovarian = system: OVCAR-3 ovarian
COLO 205 colon = system: COLO 205 colon
MOLT-4 leukemia = system: MOLT-4 leukemia
MCF7 breast = system: MCF7 breast
SNB-75 CNS = system: SNB-75 CNS
RXF 393 renal = system: RXF 393 renal
SNB-19 CNS = system: SNB-19 CNS
RPMI-8226 leukemia = system: RPMI-8226 leukemia
CCRF-CEM leukemia = system: CCRF-CEM leukemia
P388 leukemia = system: P388 leukemia
EKVX NSCLC = system: EKVX NSCLC
NCI-H522 lung = system: NCI-H522 lung
OVCAR-4 ovarian = system: OVCAR-4 ovarian
K-562 leukemia = system: K-562 leukemia
MALME-3M melanoma = system: MALME-3M melanoma
HCC-2998 colon = system: HCC-2998 colon
CAKI-1 renal = system: CAKI-1 renal
UO-31 renal = system: UO-31 renal
SK-MEL-5 melanoma = system: SK-MEL-5 melanoma
IGROV1 ovarian = system: IGROV1 ovarian
HCT-116 colon = system: HCT-116 colon
DMS 273 small cell lung = system: DMS 273 small cell lung
SN12K1 renal = system: SN12K1 renal
SN12C renal = system: SN12C renal
SNB-78 CNS = system: SNB-78 CNS
SF-539 CNS = system: SF-539 CNS

CCC(C(C)N1CC(=O)NC(=O)C1)N1CC(=O)NC(=O)C1 (stereo unspecified)
TGI (HOP-62 NSCLC): > 100 µM
TGI (HOP-92 NSCLC): > 100 µM
TGI (UACC-257 melanoma): > 100 µM
TGI (HCT-15 colon): > 100 µM
TGI (HT29 colon): > 100 µM
TGI (SK-MEL-2 melanoma): > 100 µM
TGI (U251 CNS): > 100 µM
TGI (NCI-H226 lung): > 100 µM
TGI (SK-MEL-28 melanoma): > 100 µM
TGI (KM20L2 colon): > 100 µM
TGI (HOP-18 NSCLC): > 100 µM
TGI (OVCAR-8 ovarian): > 100 µM
TGI (NCI-H460 lung): > 100 µM
TGI (P388/ADR leukemia): > 100 µM
TGI (NCI-H23 lung): > 100 µM
TGI (OVCAR-5 ovarian): > 100 µM
TGI (SK-OV-3 ovarian): > 100 µM
TGI (A498 renal): > 100 µM
TGI (LOX IMVI melanoma): > 100 µM
TGI (HL-60(TB) leukemia): > 100 µM
TGI (NCI/ADR-RES ovarian): > 100 µM
TGI (SW-620 colon): > 100 µM
TGI (M19-MEL melanoma): > 100 µM
TGI (DMS 114 small cell lung): > 95 µM
TGI (SF-268 CNS): > 100 µM
TGI (DLD-1 colon): > 100 µM
TGI (UACC-62 melanoma): > 100 µM
TGI (XF 498 CNS): > 100 µM
TGI (A549 NSCLC): > 100 µM
TGI (SF-295 CNS): > 100 µM
TGI (KM12 colon): > 100 µM
TGI (OVCAR-3 ovarian): > 100 µM
TGI (COLO 205 colon): > 27.9 µM
TGI (MOLT-4 leukemia): > 100 µM
TGI (MCF7 breast): > 100 µM
TGI (SNB-75 CNS): > 100 µM
TGI (RXF 393 renal): > 100 µM
TGI (SNB-19 CNS): > 100 µM
TGI (RPMI-8226 leukemia): > 100 µM
TGI (CCRF-CEM leukemia): > 100 µM
TGI (P388 leukemia): > 75.9 µM
TGI (EKVX NSCLC): > 30 µM
TGI (NCI-H522 lung): > 63.5 µM
TGI (OVCAR-4 ovarian): > 100 µM
TGI (K-562 leukemia): > 100 µM
TGI (MALME-3M melanoma): > 100 µM
TGI (HCC-2998 colon): > 100 µM
TGI (CAKI-1 renal): > 100 µM
TGI (UO-31 renal): > 100 µM
TGI (SK-MEL-5 melanoma): > 100 µM
TGI (IGROV1 ovarian): > 100 µM
TGI (HCT-116 colon): > 100 µM
TGI (DMS 273 small cell lung): > 100 µM
TGI (SN12K1 renal): > 100 µM
TGI (SN12C renal): > 100 µM
TGI (SNB-78 CNS): > 100 µM
TGI (SF-539 CNS): > 100 µM

CCCCCCCCC1=CCC(CN(C)C)C1=O (stereo unspecified)
TGI (HOP-62 NSCLC): > 31.6 µM
TGI (HOP-92 NSCLC): 31 µM
TGI (UACC-257 melanoma): 45.7 µM
TGI (HCT-15 colon): 33.7 µM
TGI (HT29 colon): 35.4 µM
TGI (SK-MEL-2 melanoma): 46.1 µM
TGI (U251 CNS): 32.8 µM
TGI (NCI-H226 lung): > 76.3 µM
TGI (SK-MEL-28 melanoma): 38.2 µM
TGI (KM20L2 colon): 47.4 µM
TGI (OVCAR-8 ovarian): 34.9 µM
TGI (NCI-H460 lung): 26.1 µM
TGI (P388/ADR leukemia): 15 µM
TGI (NCI-H23 lung): 39.2 µM
TGI (OVCAR-5 ovarian): > 72.4 µM
TGI (SK-OV-3 ovarian): > 100 µM
TGI (A498 renal): > 58.4 µM
TGI (LOX IMVI melanoma): 33.7 µM
TGI (HL-60(TB) leukemia): 33.8 µM
TGI (NCI/ADR-RES ovarian): 41.7 µM
TGI (SW-620 colon): 36.6 µM
TGI (M19-MEL melanoma): 32.3 µM
TGI (DMS 114 small cell lung): 34.4 µM
TGI (SF-268 CNS): 34.7 µM
TGI (DLD-1 colon): 35 µM
TGI (UACC-62 melanoma): 33.2 µM
TGI (A549 NSCLC): > 100 µM
TGI (SF-295 CNS): > 60.7 µM
TGI (KM12 colon): 38 µM
TGI (OVCAR-3 ovarian): 34.3 µM
TGI (COLO 205 colon): 33.9 µM
TGI (MOLT-4 leukemia): 48.2 µM
TGI (MCF7 breast): 13.6 µM
TGI (SNB-75 CNS): 32.1 µM
TGI (RXF 393 renal): 36 µM
TGI (SNB-19 CNS): > 79 µM
TGI (RPMI-8226 leukemia): 4.2 µM
TGI (CCRF-CEM leukemia): > 60.1 µM
TGI (P388 leukemia): 46.5 µM
TGI (EKVX NSCLC): 48.1 µM
TGI (NCI-H522 lung): 31.3 µM
TGI (OVCAR-4 ovarian): 50.8 µM
TGI (K-562 leukemia): 59 µM
TGI (MALME-3M melanoma): 32.3 µM
TGI (HCC-2998 colon): 27.7 µM
TGI (UO-31 renal): 39.2 µM
TGI (SK-MEL-5 melanoma): 41.4 µM
TGI (IGROV1 ovarian): 35.9 µM
TGI (HCT-116 colon): 36.5 µM
TGI (DMS 273 small cell lung): 35.3 µM
TGI (SN12K1 renal): 32.1 µM
TGI (SN12C renal): 32.4 µM
TGI (SNB-78 CNS): 46.4 µM
TGI (SF-539 CNS): 36.9 µM
